Measured values as given in patent US20160002250A1, “POLYMORPHS AND SALTS OF A COMPOUND” (FORUM Pharmaceuticals Inc., priority 2013, published 2016).
Values after ≈ are worked out from the molar mass of the structure shown. “Also recorded” adds a separate entry of the source. Marks after values point to notes of the source that are not given here.

Experiments:
[1] = Gravimetric Vapour Sorption (GVS); format: physicochemical; settings: for Form change by XRPD during GVS: RH 0% to 90%; for GVS water uptake (% of mass): RH from 0% to 90%, 25° C.
Description: Sorption isotherms were obtained using a SMS DVS Intrinsic moisture sorption analyzer, controlled by DVS Intrinsic Control software v1.0.0.30. The sample temperature was maintained at 25° C. by the instrument controls. The humidity was controlled by mixing streams of dry and wet nitrogen, with a total flow rate of 200 ml/min. The relative humidity was measured by a calibrated Rotronic probe (dynamic range of 1.0-100% RH), located near the sample. The weight change, (mass relaxation) of the sample as a function of % RH was constantly monitored by the microbalance (accuracy ±0.005 mg).
Typically 5-30 mg of sample was placed in a tared mesh stainless steel basket under ambient conditions. The sample was loaded and unloaded at 40% relative humidity (RH) and 25° C. (typical room conditions). A moisture sorption isotherm was performed as outlined below in Table 4 (2 scans giving 1 complete cycle). The standard isotherm was performed at 25° C. at 10% RH intervals over a 0-90% RH range. Data analysis was undertaken in Microsoft Excel using DVS Analysis Suite. The sample was recovered after completion of the isotherm and re-analyzed by XRPD.

[2] = Six-week stability study (elevated humidity, 60° C., room conditions); format: physicochemical; settings: for Stability to elevated humidity and air oxidation: 60° C. and ambient conditions, XRPD, HPLC, 1H-NMR; for Stability to humidity: elevated humidity and temperature conditions
Description: The stability to elevated humidity and air oxidation was investigated for both Form 1 and Form 2 of the Free Base. Samples of both materials were stored at 40° C./75% RH, 25° C./96% RH, 60° C. in contact with air and ambient conditions (25° C. in contact with air) for six weeks, and analyses by XRPD, HPLC and ^1H-NMR (for oxidation study samples only) were carried out weekly.

[3] = Storage at elevated humidity; format: physicochemical; settings: for Change in XRPD pattern on storage: seven days
Description: Samples were place on a glass slide and sealed in an airtight plastic container, along with an open beaker of saturated aqueous salt solution, and stored at a known regulated temperature. A saturated solution of NaCl was used to obtain a relative humidity of 75% at 40° C., whilst a saturated solution of potassium nitrate was used to provide 92% RH at 25° C.

[4] = Solubility in solvents, slow cooling and evaporation experiments; format: physicochemical; settings: 50° C.
Description: 4-(4-(imidazo[1,2-b]pyridazin-2-ylmethoxy)phenyl)-2,2-dimethyl-5-(pyridin-4-yl)furan-3(2H)-one (Form 2 or Form 1; ca. 10 mg per experiment) was weighed into vials, and the stated solvents were added, in increasing portions at 50° C. With each addition, the vials were allowed to shake for ˜20 minutes. Any solutions observed were allowed to cool to room temperature. Those experiments that remained as solutions were pin-holed to allow the solvent to slowly evaporate. Any suspensions observed were subjected to heat/cool cycles, between room temperature and 50° C., four hours at each condition.

[5] = Thermodynamic aqueous solubility; settings: for Thermodynamic solubility: 25° C.; for solubility thermodynamic at 24 h: 25 °C, thermodynamic from solid
Description: The suspension was equilibrated at 25° C. for 24 hours then the pH was measured and adjusted with either HCl or NaOH if it deviated by more than 0.3 units from the target pH. The suspension was then filtered through a glass fiber C filter. […] Different volumes of the standard, diluted and undiluted sample solutions were injected.
Analysis was performed on an Agilent HP1100 series system equipped with a diode array detector and using ChemStation software. The following buffers were prepared to carry out the solubility analyses:
pH 1.2—made up by adding 85.0 mL of 0.2M HCl(aq) to 50 mL of 0.2M KCl(aq) and making up to 200 mL. pH 4.5—made up by adding 2.99 g of NaC2H3O2.3H2O to 14.0 mL of 2N AcOH(aq) and making up to 1000 mL. pH 7.4—made up adding 39.1 mL of 0.2M NaOH(aq) to 50.0 mL of a 0.2M KH2PO4 and making up to 200 mL.

[6] = Stability of amorphous material at room and elevated humidity conditions; format: physicochemical
Description: A DSC experiment was performed to assess the possibility of preparing amorphous material by melting and quench cooling. A sample of Form 1 (˜1 mg) was heated to 200° C. until it melted, then quickly cooled down to −80° C. and re-heated at 10° C./min. […] The crystalline Form 1 then melted at 184° C.
The experiment was repeated on a larger scale (batches of ˜60 mg) on the TGA instrument, and the resulting glasses were used as input materials for maturation experiments. Samples were also stored at elevated humidity conditions for re-analysis by XRPD after 24 h.

[7] = 25° C./96% RH, Week 5, samples run after 24 hours in solution
[8] = 40° C./75% RH, 25° C./96% RH, six weeks
[9] = 40° C./75% RH, Week 5, samples run after 24 hours in solution
[10] = 60° C., Week 5, samples run after 24 hours in solution
[11] = Room conditions, Week 5, samples run after 24 hours in solution

Structure (SMILES): CC1(C)OC(c2ccncc2)=C(c2ccc(OCc3cn4ncccc4n3)cc2)C1=O [Form 1, 4-(4-(imidazo[1,2-b]pyridazin-2-ylmethoxy)phenyl)-2,2-dimethyl-5-(pyridin-4-yl)furan-3(2H)-one]
- Form change by XRPD during GVS [1]: No form change
- GVS water uptake (% of mass) [1]: 0.9%
- Purity (area %) ([2]; 25° C./96% RH, Week 1): 96.6 area %
- Purity (area %) ([2]; 25° C./96% RH, Week 2): 95.5 area %
- Purity (area %) ([2]; 25° C./96% RH, Week 3): 96.5 area %
- Purity (area %) ([2]; 25° C./96% RH, Week 4): 95.9 area %
- Purity (area %) [2, 7]: 91.8* area %
- Purity (area %) ([2]; 25° C./96% RH, Week 6): 95.5 area %
- Stability to elevated humidity and air oxidation [2, 8]: No significant changes; also recorded: no significant degradation
- Purity (area %) ([2]; 40° C./75% RH, Week 1): 96.9 area %
- Purity (area %) ([2]; 40° C./75% RH, Week 2): 96.3 area %
- Purity (area %) ([2]; 40° C./75% RH, Week 3): 96.5 area %
- Purity (area %) ([2]; 40° C./75% RH, Week 4): 95.6 area %
- Purity (area %) [2, 9]: 95.6* area %
- Purity (area %) ([2]; 40° C./75% RH, Week 6): 96.8 area %
- Changes after storage at 60° C. ([2]; 60° C., 4 weeks): no significant changes
- Purity (area %) ([2]; 60° C., Week 1): 96.8 area %
- Purity (area %) ([2]; 60° C., Week 2): 95.2 area %
- Purity (area %) ([2]; 60° C., Week 3): 95.5 area %
- Purity (area %) ([2]; 60° C., Week 4): 94.8 area %
- Purity (area %) [2, 10]: 96.0* area %
- Purity (area %) ([2]; 60° C., Week 6): 95.9 area %
- Changes by 1H-NMR or HPLC after storage at 60° C. ([2]; 60° C., six weeks): no significant changes
- Purity (area %) ([2]; Room conditions, Week 1): 96.5 area %
- Purity (area %) ([2]; Room conditions, Week 2): 94.9 area %
- Purity (area %) ([2]; Room conditions, Week 3): 96.6 area %
- Purity (area %) ([2]; Room conditions, Week 4): 96.0 area %
- Purity (area %) [2, 11]: 95.5* area %
- Purity (area %) ([2]; Room conditions, Week 6): 95.9 area %
- Stability to humidity ([2]; after 6 weeks): No changes observed at elevated
- Change in XRPD pattern on storage ([3]; 25° C./92% RH): no significant change in the XRPD pattern
- Change in XRPD pattern on storage ([3]; 40° C./75% RH): no significant change in the XRPD pattern
- Solubility (volumes) ([4]; MeCN/H2O, 20 volumes): Almost
- pH of saturated unfiltered solution ([5]; DI water): 7.67
- Thermodynamic solubility ([5]; DI water, 24 hours): 60 µg/mL
- solubility thermodynamic at 24 h ([5]; deionized water, water, thermodynamic aqueous solubility, at pH 7.67 (Form 1), pH 7.23 (Form 2)): ~60 µg/mL (≈ 145 µM)
- pH of saturated unfiltered solution ([5]; pH 1.2 buffer): 1.40
- Thermodynamic solubility ([5]; pH 1.2 buffer, 24 hours): 32000 µg/mL
- pH of saturated unfiltered solution ([5]; pH 4.5 buffer): 4.67
- Thermodynamic solubility ([5]; pH 4.5 buffer, 24 hours): 60 µg/mL
- pH of saturated unfiltered solution ([5]; pH 7.4 buffer): 7.46
- solubility thermodynamic at 24 h ([5]; pH 7.4 buffer, pH 7.4, aqueous buffer, Thermodynamic solubility, 24 hours): 50 µg/mL (≈ 121 µM)

Structure (SMILES): CC1(C)OC(c2ccncc2)=C(c2ccc(OCc3cn4ncccc4n3)cc2)C1=O [Form 2, 4-(4-(imidazo[1,2-b]pyridazin-2-ylmethoxy)phenyl)-2,2-dimethyl-5-(pyridin-4-yl)furan-3(2H)-one]
- Purity (area %) ([2]; 25° C./96% RH, Week 1): 99.3 area %
- Purity (area %) ([2]; 25° C./96% RH, Week 2): 98.9 area %
- Purity (area %) ([2]; 25° C./96% RH, Week 3): 98.9 area %
- Purity (area %) ([2]; 25° C./96% RH, Week 4): 98.9 area %
- Purity (area %) [2, 7]: 98.0* area %
- Purity (area %) ([2]; 25° C./96% RH, Week 6): 98.9 area %
- Stability to elevated humidity and air oxidation [2, 8]: No significant changes; also recorded: no significant degradation
- Purity (area %) ([2]; 40° C./75% RH, Week 1): 99.5 area %
- Purity (area %) ([2]; 40° C./75% RH, Week 2): 99.1 area %
- Purity (area %) ([2]; 40° C./75% RH, Week 3): 99.2 area %
- Purity (area %) ([2]; 40° C./75% RH, Week 4): 99.1 area %
- Purity (area %) [2, 9]: 98.8* area %
- Purity (area %) ([2]; 40° C./75% RH, Week 6): 98.9 area %
- Purity (area %) ([2]; 60° C., Week 1): 98.9 area %
- Purity (area %) ([2]; 60° C., Week 2): 99.1 area %
- 1H-NMR ([2]; 60° C., Week 4): Very weak
- Purity (area %) ([2]; 60° C., Week 4): 99.0 area %
- Purity (area %) [2, 10]: 98.6* area %
- Purity (area %) ([2]; 60° C., Week 6): 99.0 area %
- Purity (area %) ([2]; Room conditions, Week 1): 99.2 area %
- Purity (area %) ([2]; Room conditions, Week 2): 98.6 area %
- Purity (area %) ([2]; Room conditions, Week 4): 98.6 area %
- Purity (area %) [2, 11]: 98.2* area %
- Purity (area %) ([2]; Room conditions, Week 6): 98.2 area %
- Stability at 60° C. in contact with air ([2]; after 6 weeks, XRPD and HPLC): No significant changes by XRPD or HPLC analyses after
- Stability at room conditions (25° C. in contact with air) ([2]; after 6 weeks, XRPD and HPLC): No significant changes by XRPD or HPLC analyses after
- Stability at 25° C./96% RH ([2]; after 6 weeks, XRPD and purity): No significant changes by XRPD or purity after 6 weeks
- Stability at 40° C./75% RH ([2]; after 6 weeks, XRPD and purity): No significant changes by XRPD or purity after 6 weeks
- Stability to humidity ([2]; after 6 weeks): No changes observed at elevated
- Solubility (volumes) ([4]; BuOAc, 50 volumes): Almost
- Solubility (volumes) ([4]; BuOAc, 100 volumes): Almost
- Solubility (volumes) ([4]; Ethanol, 50 volumes): Almost
- Solubility (volumes) ([4]; IPA, 50 volumes): Almost
- Solubility (volumes) ([4]; IPA, 100 volumes): Almost
- Solubility (volumes) ([4]; IPAc, 50 volumes): Almost
- Solubility (volumes) ([4]; IPAc, 100 volumes): Almost
- Solubility (volumes) ([4]; MEK, 20 volumes): Almost
- Solubility (volumes) ([4]; MIBK, 50 volumes): Almost
- Solubility (volumes) ([4]; MIBK, 100 volumes): Almost
- Solubility (volumes) ([4]; MeCN/H2O, 10 volumes): Almost
- Solubility (volumes) ([4]; Methanol, 10 volumes): Almost
- Solubility (volumes) ([4]; Nitromethane, 10 volumes): Almost
- Solubility (volumes) ([4]; Toluene, 50 volumes): Almost
- pH of saturated unfiltered solution ([5]; DI water): 7.23
- solubility thermodynamic at 24 h ([5]; deionized water, water, Thermodynamic solubility, DI water, 24 hours): 40 µg/mL (≈ 97 µM)
- thermodynamic aqueous solubility ([5]; deionized water, at pH 7.67 (Form 1), pH 7.23 (Form 2)): about 0.04 mg/ml
- pH of saturated unfiltered solution ([5]; pH 1.2 buffer): 1.73
- solubility thermodynamic at 24 h ([5]; pH 1.2 buffer, pH 1.2, simulated gastric fluid, Thermodynamic solubility, 24 hours): 37800 µg/mL (≈ 91600 µM)
- pH of saturated unfiltered solution ([5]; pH 4.5 buffer): 4.65
- solubility thermodynamic at 24 h ([5]; pH 4.5 buffer, pH 4.5, aqueous buffer, Thermodynamic solubility, 24 hours): 50 µg/mL (≈ 121 µM)
- pH of saturated unfiltered solution ([5]; pH 7.4 buffer): 7.46
- Thermodynamic solubility ([5]; pH 7.4 buffer, 24 hours): 40 µg/mL

Structure (SMILES): CC1(C)OC(c2ccncc2)=C(c2ccc(OCc3cn4ncccc4n3)cc2)C1=O [amorphous material, 4-(4-(imidazo[1,2-b]pyridazin-2-ylmethoxy)phenyl)-2,2-dimethyl-5-(pyridin-4-yl)furan-3(2H)-one]
- Form by XRPD after storage at elevated humidity ([6]; elevated humidity conditions, 24 h): All solids displayed Form 1
- Form on standing at room conditions ([6]; typically 25° C., 40% RH): converted to Form 1

Structure (SMILES): CC1(C)OC(c2ccncc2)=C(c2ccc(OCc3cn4ncccc4n3)cc2)C1=O.Cc1ccc(S(=O)(=O)O)cc1.Cc1ccc(S(=O)(=O)O)cc1 [bis-tosylate]
- Form change by XRPD during GVS [1]: no accompanying form change
- GVS water uptake (% of mass) [1]: 3.1%
- Form change on storage ([3]; 40° C./75% RH, one week): no form change
- Solubility (mg mL free form equivalent) ([5]; pH point 1.2): 32.29 mg mL free form equivalent
- pH of unfiltered saturated solution ([5]; pH point 1.2): 1.21
- Solubility (mg mL free form equivalent) ([5]; pH point 4.5): 0.05 mg mL free form equivalent
- pH of unfiltered saturated solution ([5]; pH point 4.5): 4.52
- Solubility (mg mL free form equivalent) ([5]; pH point 7.4): 0.05 mg mL free form equivalent
- pH of unfiltered saturated solution ([5]; pH point 7.4): 7.40
- Solubility (mg mL free form equivalent) ([5]; pH point unadjusted aqueous): 29.07 mg mL free form equivalent
- pH of unfiltered saturated solution ([5]; pH point unadjusted aqueous): 2.00
